Laboratory results: PubChem BioAssay AID624438 (The Scripps Research Institute Molecular Screening Center, 2012)
The source made the active and inactive calls.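 How the source made its calls: active means IC50 below 50 µM against the phosphatase PP2C-alpha; inactive means IC50 at or above 50 µM.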

Target: Protein phosphatase 1A (Homo sapiens) (UniProt P35813)
Test: inhibition of PP2C-alpha OMFP dephosphorylation – biochemical, fluorescence, OMFP substrate, round 5, selectivity assay for PP5 inhibitor project, late-stage follow-up (AID 624438)
Details: purified MBP-PP2C-alpha

Protein phosphatase 1A (Homo sapiens), sequence (P35813 whole entry, looked up): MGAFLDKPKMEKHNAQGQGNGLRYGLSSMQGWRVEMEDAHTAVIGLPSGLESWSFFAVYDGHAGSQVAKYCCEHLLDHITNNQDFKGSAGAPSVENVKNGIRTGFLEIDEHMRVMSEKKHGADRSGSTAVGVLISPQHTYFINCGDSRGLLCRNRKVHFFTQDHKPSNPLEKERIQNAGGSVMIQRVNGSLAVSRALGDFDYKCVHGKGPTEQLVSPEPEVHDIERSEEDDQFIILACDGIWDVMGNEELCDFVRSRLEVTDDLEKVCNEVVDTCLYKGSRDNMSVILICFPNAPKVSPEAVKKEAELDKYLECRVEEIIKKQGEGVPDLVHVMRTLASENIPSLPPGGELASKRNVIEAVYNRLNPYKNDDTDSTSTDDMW

IC50: > 1000 µM (inactive)
Structure (SMILES): CC(C)Oc1ccccc1-c1n[nH]nc1C(=O)O
